Active and inactive are the calls of the source.
Key:
SUMO-activating enzyme = SUMO-activating enzyme (Homo sapiens, UniProt Q9UBT2); experiment: blockers of SAE1/SAE2–UBC9 SUMO transfer – biochemical, HTRF, uHTS, primary screen (AID 2006); format: protein-complex assay
[1] = target: Dual specificity tyrosine-phosphorylation-regulated kinase 1A (Rattus norvegicus, UniProt Q63470); format: biochemical, Homo sapiens
[2] = target: T1, Sentrin-specific protease 8 (Homo sapiens, UniProt Q96LD8); format: functional
T1 sequence (Q96LD8 whole entry): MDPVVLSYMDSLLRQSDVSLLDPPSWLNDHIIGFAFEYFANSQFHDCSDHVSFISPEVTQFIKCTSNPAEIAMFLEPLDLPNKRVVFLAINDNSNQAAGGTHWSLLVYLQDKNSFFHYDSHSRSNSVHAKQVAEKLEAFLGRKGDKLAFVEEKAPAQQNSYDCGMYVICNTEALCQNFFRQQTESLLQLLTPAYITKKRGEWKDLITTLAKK

Streptococcus = experiment: GAS UMAA2166 growth inhibition – luminescence, BacTiterGlo, counter-screen for streptokinase expression inhibitor project, dose response (AID 1915); format: functional, organism-based;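 further: potency for reduction of bacterial viability or growth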

Sequence of SUMO-activating enzyme (Q9UBE0 whole entry): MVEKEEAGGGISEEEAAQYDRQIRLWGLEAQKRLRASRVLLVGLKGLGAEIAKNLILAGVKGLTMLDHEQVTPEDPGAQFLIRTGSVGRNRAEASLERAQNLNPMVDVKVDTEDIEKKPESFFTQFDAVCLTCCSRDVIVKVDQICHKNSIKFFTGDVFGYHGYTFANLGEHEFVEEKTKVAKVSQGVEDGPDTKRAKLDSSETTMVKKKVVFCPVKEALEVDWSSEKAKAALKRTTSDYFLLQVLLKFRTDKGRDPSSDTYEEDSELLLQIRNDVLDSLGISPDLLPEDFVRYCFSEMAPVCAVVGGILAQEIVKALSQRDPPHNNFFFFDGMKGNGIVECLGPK
Sequence of SUMO-activating enzyme (Q9UBT2 whole entry): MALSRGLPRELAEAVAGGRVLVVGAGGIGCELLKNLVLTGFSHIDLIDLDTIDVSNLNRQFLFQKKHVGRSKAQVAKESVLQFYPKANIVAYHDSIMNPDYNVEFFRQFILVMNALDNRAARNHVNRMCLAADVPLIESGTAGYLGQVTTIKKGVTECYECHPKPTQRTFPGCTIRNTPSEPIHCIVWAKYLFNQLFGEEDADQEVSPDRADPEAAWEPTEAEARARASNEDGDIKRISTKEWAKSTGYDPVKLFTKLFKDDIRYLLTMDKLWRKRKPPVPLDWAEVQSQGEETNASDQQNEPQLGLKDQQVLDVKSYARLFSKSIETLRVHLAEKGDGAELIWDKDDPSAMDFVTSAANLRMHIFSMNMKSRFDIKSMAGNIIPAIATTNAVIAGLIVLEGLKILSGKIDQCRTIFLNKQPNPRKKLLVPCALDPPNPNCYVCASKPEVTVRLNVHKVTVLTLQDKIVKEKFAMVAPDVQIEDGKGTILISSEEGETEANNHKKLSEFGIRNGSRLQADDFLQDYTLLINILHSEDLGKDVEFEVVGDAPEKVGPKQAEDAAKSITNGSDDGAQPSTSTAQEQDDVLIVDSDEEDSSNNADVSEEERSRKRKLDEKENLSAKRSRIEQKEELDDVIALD

## O=C1C=C(Nc2ccccc2C(=O)O)c2ccccc2C1=O
SUMO-activating enzyme
  IC50: 19.8 µM (active)
[1]
  AC50: 6.25 µM (active)

## COc1ccc(NC(=S)Nc2ccc3nsnc3c2)cc1
[2]
  IC50: 6.61 µM (active)

## CC(C)(C)c1cc[n+](C2=C([N-]S(=O)(=O)c3ccccc3)C(=O)c3ccccc3C2=O)cc1
Streptococcus
  EC50: 5.15 µM (active)
